Data reported in PMC7048192, “7-Acylamino-3H-1,2-benzoxathiepine 2,2-dioxides as new isoform-selective carbonic anhydrase IX and XII inhibitors” (Journal of Enzyme Inhibition and Medicinal Chemistry, 2020).

What was measured:
Assay in all cases: stopped-flow CO2 hydrase assay
Type in all cases: biochemical
hCA XII = molecular target: T1, hCA XII (Homo sapiens, UniProt O43570); conditions: read-out: KI (nM)^a,b / hCA XII
T1 construct: gene CA12; recombinant, obtained in-house
Description: stopped-flow CO2 hydrase assay on hCA XII

hCA I = molecular target: T2, hCA I (Homo sapiens, UniProt P00915); conditions: read-out: KI (nM)^a,b / hCA I
T2 construct: gene CA1; recombinant, obtained in-house
T2 sequence (P00915 2-261): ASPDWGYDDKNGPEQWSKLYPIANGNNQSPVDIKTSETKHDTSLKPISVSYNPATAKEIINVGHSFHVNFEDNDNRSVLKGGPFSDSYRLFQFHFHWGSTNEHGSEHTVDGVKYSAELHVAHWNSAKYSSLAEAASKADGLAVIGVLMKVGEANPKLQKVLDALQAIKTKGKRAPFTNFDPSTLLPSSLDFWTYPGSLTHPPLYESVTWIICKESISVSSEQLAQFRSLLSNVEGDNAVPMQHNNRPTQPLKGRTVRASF
Description: stopped-flow CO2 hydrase assay on hCA I

hCA IX = molecular target: T3, hCA IX (Homo sapiens, UniProt Q16790); conditions: read-out: KI (nM)^a,b / hCA IX
T3 construct: gene CA9; recombinant, obtained in-house
Description: stopped-flow CO2 hydrase assay on hCA IX

hCA II = molecular target: T4, hCA II (Homo sapiens, UniProt P00918); conditions: read-out: KI (nM)^a,b / hCA I
T4 construct: gene CA2; recombinant, obtained in-house

T1 sequence (O43570 25-354): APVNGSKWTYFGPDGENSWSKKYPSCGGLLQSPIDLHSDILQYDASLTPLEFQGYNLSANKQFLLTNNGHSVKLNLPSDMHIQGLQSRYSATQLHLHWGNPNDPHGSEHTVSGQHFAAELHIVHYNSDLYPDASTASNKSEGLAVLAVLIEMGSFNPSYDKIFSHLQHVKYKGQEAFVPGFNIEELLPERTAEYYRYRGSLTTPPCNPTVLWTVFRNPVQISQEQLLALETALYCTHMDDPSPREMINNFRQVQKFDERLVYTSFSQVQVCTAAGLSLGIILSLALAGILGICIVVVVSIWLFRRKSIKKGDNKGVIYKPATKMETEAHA

Row | SMILES | Ki (hCA XII) [nM] | Ki (hCA I) [nM] | Ki (hCA IX) [nM] | Ki (hCA II) [nM]
1 | O=C(Nc1ccc2c(c1)C=CCS(=O)(=O)O2)c1ccccc1C(F)(F)F [compound 15, N-(2,2-Dioxido-3H-1,2-benzoxathiepin-7-yl)-2-(trifluoromethyl)benzamide] | 8.7 | > 100000 | 19.7 | > 100000
2 | O=C(Nc1ccc2c(c1)C=CCS(=O)(=O)O2)c1ccccc1 [compound 9, N-(2,2-Dioxido-3H-1,2-benzoxathiepin-7-yl)benzamide] | 370 | > 100000 | 209 | > 100000
3 | O=C(Nc1ccc2c(c1)C=CCS(=O)(=O)O2)c1ccc(Br)cc1 [compound 11, N-(2,2-Dioxido-3H-1,2-benzoxathiepin-7-yl)4-bromobenzamide] | 141 | > 100000 | 353 | > 100000
4 | CC(=O)Nc1ccc2c(c1)C=CCS(=O)(=O)O2 [compound 8, N-(2,2-Dioxido-3H-1,2-benzoxathiepin-7-yl)acetamide] | 162 | > 100000 | 61.8 | > 100000
5 | O=C(Nc1ccc2c(c1)C=CCS(=O)(=O)O2)c1ccccc1F [compound 14, N-(2,2-Dioxido-3H-1,2-benzoxathiepin-7-yl)-2-fluorobenzamide] | 40.3 | > 100000 | 74.6 | > 100000
6 | Cc1ccc(C(=O)Nc2ccc3c(c2)C=CCS(=O)(=O)O3)cc1 [compound 10, N-(2,2-Dioxido-3H-1,2-benzoxathiepin-7-yl)-4-methy benzamide] | 309 | > 100000 | 83 | > 100000
7 | O=C(Nc1ccc2c(c1)C=CCS(=O)(=O)O2)c1cccs1 [compound 16, N-(2,2-Dioxido-3H-1,2-benzoxathiepin-7-yl)thiophene-2-carboxamide] | 73.2 | > 100000 | 178 | > 100000
8 | O=C(Nc1ccc2c(c1)C=CCS(=O)(=O)O2)c1ccco1 [compound 17, N-(2,2-Dioxido-3H-1,2-benzoxathiepin-7-yl)furan-2-carboxamide] | 134 | > 100000 | 210 | > 100000
9 | O=C(Nc1ccc2c(c1)C=CCS(=O)(=O)O2)c1ccccc1Br [compound 13, N-(2,2-Dioxido-3H-1,2-benzoxathiepin-7-yl)-2-bromobenzamide] | 96.2 | > 100000 | 66.8 | > 100000
10 | O=C(Nc1ccc2c(c1)C=CCS(=O)(=O)O2)c1ccccc1I [compound 12, N-(2,2-Dioxido-3H-1,2-benzoxathiepin-7-yl)-2-iodobenzamide] | 644 | > 100000 | 45.4 | > 100000
